This assay concerns DNIC efficiency (diffuse noxious inhibitory control). The following applies: 60 mg once a day for one week, healthy volunteers.

Read-outs that look alike come from different tables or passages of the source.

Text: According to an exemplary testing procedure, the DNIC can be assessed as the difference of pain ratings to ‘test stimulus’ applied before and during the immersion of the contralateral hand into hot water bath (conditioning stimulus) as elaborated infra. Exemplary test stimulus of a 30 seconds period with contact heat, such as 30×30 mm^2 thermode TSA-2001 available from Medoc, can be delivered for instance on the non-dominant forearm at the individually-predetermined temperature that evoked pain intensity of 60 on a 0-100 NPS (more details in Granot et al., 2006). The stimulus temperature can be raised by 2° C./sec from 32° C. to the destination temperature. Fifteen minutes after the completion the first pre-immersion test, the patient is asked to immerse his/her dominant hand for 1′ into the water bath of 46.5° C. (Neto Cooling Bath CBN 8-30, Allerod, Denemark), while second application of the ‘test stimulus’ is repeated during last 30 seconds of immersion. […]
DNIC paradigm, tested at baseline and after each of the treatments, consisted of administration of two painful stimuli, a test-pain delivered by contact heat, and a ‘conditioning’ pain induced by hot water immersion of the other hand. The DNIC efficiency was calculated as the difference between pain perceptions induced by the test-pain when given alone, and when given concomitantly with the conditioning one.

Consider `CNCC[C@H](Oc1cccc2ccccc12)c1cccs1` [Duloxetine], for which the “Duloxetine treatment DNIC score” value was determined as 29.26 (high pre-treatment DNIC group (pre-treatment DNIC score 32.50), NS vs. pre-treatment) and 19.35 (low pre-treatment DNIC group (pre-treatment DNIC score 0.15), P<0.05 vs. pre-treatment (Tukey)).

Values taken from patent US20100312073A1, “METHOD OF […] […]” (priority 2008, published 2010).
